The source of these data is US20070135499A1 (Aerie Pharmaceuticals, Inc., priority 2005, published 2007).

One experiment has as its target T1, hGRK-2 (Homo sapiens, UniProt P25098).
T1 sequence (P25098 1-689): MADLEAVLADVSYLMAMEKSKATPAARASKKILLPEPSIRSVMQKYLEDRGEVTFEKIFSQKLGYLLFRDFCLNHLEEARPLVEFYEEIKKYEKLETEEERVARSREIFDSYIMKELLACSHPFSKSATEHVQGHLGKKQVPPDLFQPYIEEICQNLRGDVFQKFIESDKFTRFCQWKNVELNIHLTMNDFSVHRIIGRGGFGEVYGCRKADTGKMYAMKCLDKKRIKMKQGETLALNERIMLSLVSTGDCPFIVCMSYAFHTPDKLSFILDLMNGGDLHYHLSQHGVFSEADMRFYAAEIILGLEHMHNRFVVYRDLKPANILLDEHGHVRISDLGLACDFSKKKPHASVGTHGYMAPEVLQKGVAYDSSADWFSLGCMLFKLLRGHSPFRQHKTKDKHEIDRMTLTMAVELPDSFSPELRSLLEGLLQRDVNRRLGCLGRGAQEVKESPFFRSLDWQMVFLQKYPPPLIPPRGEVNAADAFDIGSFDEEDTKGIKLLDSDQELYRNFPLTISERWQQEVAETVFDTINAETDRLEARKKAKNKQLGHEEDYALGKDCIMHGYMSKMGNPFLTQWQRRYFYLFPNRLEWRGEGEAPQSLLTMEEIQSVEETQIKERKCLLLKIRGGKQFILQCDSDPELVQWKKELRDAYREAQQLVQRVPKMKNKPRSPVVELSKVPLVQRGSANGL
As to the kind of experiment: luciferase-based (Kinase-Glo) biochemical kinase inhibition assay, hGRK-2. Conditions: luciferase assay, casein substrate, 10 μM ATP; read-out: GRK-2 inhibition, Ki class. As for the experimental part: (§1) The inhibition of G-protein-coupled receptor kinases including hGRK-2 was determined for the hydrazide compounds using a biochemical assay. The inhibition of GRK-3, GRK-5 and GRK-6 was also determined using the same assay for some of the hydrazide derivatives.
(§2) The protein kinase inhibition was determined using a biochemical assay utilizing the light emission of a luciferase reaction. The luciferase-based assay operates on the following reaction principles: [drawing 10]
(§3) An inhibitor of GRK-2 will increase in the amount of ATP in solution, as shown. Thus, an inhibitor of GRK-2 will drive the luciferase reaction to the right, resulting in more light emitted. The amount of light emitted is proportional to the inhibition resulting from the GRK-2 inhibitor. The luciferase-based assay was also used to test some of the hydrazides for the inhibition properties towards other kinases.
The test procedure was as follows:
• 50 mM HEPES, pH 7.5 • 10 mM MgCl2 • 100 μM activated sodium orthovanadate • 0.01% CHAPS • 0.1% BSA • 1 mM DTT (added fresh daily) 10× Assay Buffer Stock: • 500 mM HEPES, pH 7.5 • 100 mM MgCl2 • 1 mM activated sodium orthovanadate • 0.1% CHAPS • 1% BSA (leave out for 10× compound dilution buffer) Final Assay Conditions: • 50 μM test compound • 20 μM casein • 10 μM ATP • 50 nM hGRK2 • 4.5% DMSO • 90-120 minute incubation
Stopped by addition of 30 μl 3×-diluted Kinase-Glo reagent containing 0.01% trypan blue. Counted on FUSION plate reader.
Compound Dilution and Transfer
Prepare sufficient buffer containing 40% DMSO to add 20 μl/well to the number of plates being assayed. This buffer should not contain BSA because it will precipitate with addition of 40% DMSO. (EXAMPLE: To make 3000 ml compound dilution buffer: 1200 ml DMSO, 180 ml 10× compound dilution buffer, 1615 ml ultrapure water, 3 ml 1M DTT.).
Using Multidrop, add 20 μl of compound dilution buffer to all wells of the 384-well daughter plate (add 1 μl DMSO to control wells). This will result in a daughter plate which contains 21 μl of ˜500 μM test compound.
Using the PlateTrak, transfer 5 μl of the test compounds to a 384-well, non-binding, white microtiter plate.
Prepare sufficient volume of buffer (with BSA and 1 mM DTT) containing 125 nM GRK2 and 25 μM ATP. (Example: To 219 ml of buffer was added 550 μl 10 mM ATP and 350 μl 79 μM GRK2).
Using Multidrop, add 20 μl of GRK2/ATP mixture to all wells of the microtiter plate.
Prepare sufficient volume of buffer (with BSA and 1 mM DTT) containing 40 μM casein. (EXAMPLE: To 211 ml buffer add 8.8 ml 1 mM casein)
Using Multidrop, add 25 μl to columns 1 through 23 of the microtiter plate. Add 25 μl of complete buffer to column 24 (blanks).
Mix reaction gently by tapping (Multidrop addition of casein does a decent job of mixing), stack plates and incubate at room temperature for between 90 and 120 minutes. Assay progression can be tracked in a separate plate if desired. Target 20-30% ATP consumption. Try to avoid exceeding 40% consumption as kinetics might become non-linear due to substrate (ATP) depletion.
Addition of Kinase-Glo Reagents
The Kinase-Glo reagent can be diluted 3-fold with no loss of data quality in this assay. Additionally, since the library contains many colored compounds which will quench the light emitted from the well resulting in a false negative (kinase inhibitors result in less ATP consumption thus more light emitted), the entire reaction is subject to intentional quench to override this effect. This intentional quench is accomplished by the addition of 0.01% trypan blue to the Kinase-Glo reagents. (EXAMPLE: 100 ml 1× Kinase-Glo reagents (prepared according to product insert), 200 ml assay buffer, 7.5 ml 0.4% trypan blue.
Using Multidrop, add 30 μl to all wells of the assay plate.
Count on FUSION plate reader in luminescence mode.
(In general: In Kinase-Glo more light means more ATP remaining.)

A further experiment addresses T2, GRK-3 (Homo sapiens, UniProt P35626).
T2 sequence (P35626 1-688): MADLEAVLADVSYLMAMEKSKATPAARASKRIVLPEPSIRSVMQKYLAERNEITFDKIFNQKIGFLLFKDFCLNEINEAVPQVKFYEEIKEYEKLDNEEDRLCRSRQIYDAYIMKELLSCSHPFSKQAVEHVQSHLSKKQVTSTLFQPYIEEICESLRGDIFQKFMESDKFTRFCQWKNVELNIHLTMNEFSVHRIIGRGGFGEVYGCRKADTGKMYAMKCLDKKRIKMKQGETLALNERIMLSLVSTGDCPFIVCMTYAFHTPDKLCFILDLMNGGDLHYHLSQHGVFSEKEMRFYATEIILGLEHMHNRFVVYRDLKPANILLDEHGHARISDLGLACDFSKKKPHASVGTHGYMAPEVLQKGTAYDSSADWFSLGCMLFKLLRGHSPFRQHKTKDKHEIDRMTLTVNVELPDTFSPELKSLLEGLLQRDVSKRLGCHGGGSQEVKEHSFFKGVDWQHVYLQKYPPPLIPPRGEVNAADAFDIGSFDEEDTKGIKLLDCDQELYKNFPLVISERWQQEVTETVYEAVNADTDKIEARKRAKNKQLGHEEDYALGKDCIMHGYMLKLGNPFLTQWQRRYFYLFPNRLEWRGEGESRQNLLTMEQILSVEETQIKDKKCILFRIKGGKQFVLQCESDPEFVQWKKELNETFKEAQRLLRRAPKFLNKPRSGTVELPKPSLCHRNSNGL
As to the kind of experiment: luciferase-based biochemical kinase inhibition assay, GRK-3. Conditions: same luciferase assay; read-out: GRK-3 inhibition, Ki class. As for the experimental part: as §1, §2, §3

For the next experiment, the target named is GRK-5 (Homo sapiens, UniProt P34947). As to the kind of experiment: luciferase-based biochemical kinase inhibition assay, GRK-5. Particulars: same luciferase assay; read-out: GRK-5 inhibition, Ki class. As for the experimental part: The inhibition of G-protein-coupled receptor kinases including hGRK-2 was determined for the hydrazide compounds using a biochemical assay. […] The inhibition of GRK-3, GRK-5 and GRK-6 was also determined using the same assay for some of the hydrazide derivatives.
Sequence of GRK-5 (P34947 whole entry, species assumed): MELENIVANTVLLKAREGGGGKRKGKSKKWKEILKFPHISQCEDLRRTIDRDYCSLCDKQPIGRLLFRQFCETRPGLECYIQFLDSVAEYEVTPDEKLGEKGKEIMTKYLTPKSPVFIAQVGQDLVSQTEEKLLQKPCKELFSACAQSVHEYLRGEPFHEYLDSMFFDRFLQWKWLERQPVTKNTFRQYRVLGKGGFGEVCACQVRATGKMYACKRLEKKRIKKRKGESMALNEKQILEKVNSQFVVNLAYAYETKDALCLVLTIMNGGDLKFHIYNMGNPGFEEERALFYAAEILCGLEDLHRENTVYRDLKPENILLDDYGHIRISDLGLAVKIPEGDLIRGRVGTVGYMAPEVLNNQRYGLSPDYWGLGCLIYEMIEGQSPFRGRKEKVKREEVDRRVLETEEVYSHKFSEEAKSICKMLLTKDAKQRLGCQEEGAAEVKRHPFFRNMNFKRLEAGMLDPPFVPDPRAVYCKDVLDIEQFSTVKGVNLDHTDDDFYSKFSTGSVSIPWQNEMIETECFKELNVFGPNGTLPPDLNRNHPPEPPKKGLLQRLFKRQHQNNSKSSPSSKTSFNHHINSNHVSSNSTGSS
as §2, §3

Some results are limits rather than exact numbers.

Usually Ki stands for a measure of affinity in units of concentration, obtained from inhibition or displacement. As for `O=C(CNc1cccc(Cl)c1)N/N=C/c1c(Cl)cncc1Cl` [Example 1, (3-Chloro-phenylamino)-acetic acid [1-(3,5-dichloro-pyridin-4-yl)-meth-(E)-ylidene]-hydrazide], the Ki at hGRK-2, at GRK-3 and at GRK-5 was 1 to 10 µM throughout. In the case of `O=C(CNc1cccc(F)c1)N/N=C/c1c(Cl)cncc1Cl` [Example 4, (3-Fluoro-phenylamino)-acetic acid [1-(3,5-dichloro-pyridin-4-yl)-meth-(E)-ylidene]-hydrazide], the Ki on hGRK-2 is 0.1 to 1 µM; on GRK-3, 1 to 10 µM; on GRK-5, 1 to 10 µM. As to `CSc1cccc(NCC(=O)N/N=C/c2c(Cl)cncc2Cl)c1` [Example 10, (3-Methylsulfanyl-phenylamino)-acetic acid [1-(3,5-dichloro-pyridin-4-yl)-meth-(E)-ylidene]-hydrazide], the Ki at hGRK-2 was 0.1 to 1 µM; on GRK-3, 0.1 to 1 µM; on GRK-5, 1 to 10 µM. On to `O=C(CNc1cccc(-n2cncn2)c1)N/N=C/c1ccncc1` [Example 78, (3-[1,2,4]Triazol-1-yl-phenylamino)-acetic acid [1-pyridin-4-yl-meth-(E)-ylidene]-hydrazide], for which the Ki on hGRK-2 is more than 10 µM. Turning to `O=C(CNc1cccc(C(=O)Nc2cccnc2)c1)N/N=C/c1ccncc1` [Example 80, N-Pyridin-3-yl-3-{[1-pyridin-4-yl-meth-(E)-ylidene-hydrazinocarbonylmethyl]-amino}-benzamide], the Ki on hGRK-2 was in the range of 0.1 to 1 µM. The same measure, in the same setting: with `O=C(CNc1cccc(-n2cccn2)c1)N/N=C/c1ccncc1` [Example 82, (3-Pyrazol-1-yl-phenylamino)-acetic acid [1-pyridin-4-yl-meth-(E)-ylidene]-hydrazide] the figure was more than 10 µM; with `O=C(CNc1cccc(Oc2ccc(F)c(F)c2)c1)N/N=C/c1ccncc1` [Example 83, [3-(3,4-Difluoro-phenoxy)-phenylamino]-acetic acid [1-pyridin-4-yl-meth-(E)-ylidene]-hydrazide], 0.1 to 1 µM; with `O=C(CNc1cccc(Oc2ccc(F)cc2F)c1)N/N=C/c1ccncc1` [Example 84, [3-(2,4-Difluoro-phenoxy)-phenylamino]-acetic acid [1-pyridin-4-yl-meth-(E)-ylidene]-hydrazide], 0.01 to 0.1 µM. Same read-out and setting: under `O=C(CNc1cccc(Oc2cccnc2)c1)N/N=C/c1ccncc1` [Example 86, [3-(Pyridin-3-yloxy)-phenylamino]-acetic acid [1-pyridin-4-yl-meth-(E)-ylidene]-hydrazide] stands 0.1 to 1 µM; under `O=C(CNc1cccc(Cl)c1)N/N=C/c1ccnc2ccccc12` [Example 91, (3-Chloro-phenylamino)-acetic acid [1-quinolin-4-yl-meth-(E)-ylidene]-hydrazide], more than 10 µM.

As for `Cn1cncc1/C=N/NC(=O)CNc1cccc(Cl)c1` [Example 92, (3-Chloro-phenylamino)-acetic acid [1-(3-methyl-3H-imidazol-4-yl)-meth-(E)-ylidene]-hydrazide], the Ki at hGRK-2 was more than 10 µM.

Consider `O=C(CNc1cccc(Cl)c1)N/N=C/c1ccsc1` [Example 93, (3-Chloro-phenylamino)-acetic acid [1-thiophen-3-yl-meth-(E)-ylidene]-hydrazide], for which, at hGRK-2, the Ki is more than 10 µM. Still for that read-out and setting: under `O=C(CNc1cccc(Cl)c1)N/N=C/c1ccoc1` [Example 94, (3-Chloro-phenylamino)-acetic acid [1-furan-3-yl-meth-(E)-ylidene]-hydrazide] stands 1 to 10 µM; under `O=C(CNc1cccc(Cl)c1)NNCc1ccncc1` [Example 95, (3-Chloro-phenylamino)-acetic acid N′-pyridin-4-ylmethyl-hydrazide], more than 10 µM. Turning to `O=C(CNc1cccc(C(=O)Nc2ccccc2)c1)N/N=C/c1ccncc1` [Example 96, N-Phenyl-3-{[1-pyridin-4-yl-meth-(E)-ylidene-hydrazinocarbonylmethyl]-amino}-benzamide], the Ki at hGRK-2 lay within 0.1 to 1 µM; at GRK-3, 0.01 to 0.1 µM. `CC(Nc1cccc(Oc2ccccc2)c1)C(=O)N/N=C/c1c(Cl)cncc1Cl` (centres unmarked) [Example 98, 2-(3-Phenoxy-phenylamino)-propionic acid [1-(3,5-dichloro-pyridin-4-yl)-meth-(E)-ylidene]-hydrazide]: the inhibitory constant (Ki) at hGRK-2 was more than 10 µM. As to `CC(Nc1cccc(Oc2ccccc2)c1)C(=O)N/N=C/c1ccncc1` (centres unmarked) [Example 99, 2-(3-phenoxy-phenylamino)-propionic acid [1-pyridin-4-yl-meth-(E)-ylidene]-hydrazide], on hGRK-2, the Ki was more than 10 µM.

For `COc1cc(NCC(=O)N/N=C/c2ccncc2)cc(OC)c1` [Example 100, (3,5-Dimethoxy-phenylamino)-acetic acid [1-pyridin-4-yl-meth-(E)-ylidene]-hydrazide], at hGRK-2, the Ki was more than 10 µM. “Dimethyl-carbamic acid 3-{[1-pyridin-4-yl-meth-(E)-ylidene-hydrazinocarbonyl-methyl]-amino}-phenyl ester [Example 101]”: the Ki on hGRK-2 is more than 10 µM.
